For 69 molecules, pKa results are on record in the pKa sets of Baltruschat and Czodrowski (2020).

In the case of `CCCC(N)C(=O)[O-]` (stereo unspecified), under “basic group”, the pKa (as a rule, the pH at which an ionisable group is half protonated) is 9.86.

Molecule `Cn1c(=O)[nH]c2c(ncn2C)c1=O` showed a pKa (acidic group) of 6.3.

The molecule `CC(=O)Nc1ccc(S(=O)(=O)Nc2ccccn2)cc1` returned a pKa (basic group) of 2.03.

Molecule `Nc1cccc(N)c1` registered a pKa (basic group) of 5.04.

For the molecule `CC(C)(C)C1C(=O)NC(=O)NC1=O`, under “acidic group”, the pKa is 7.98.

Consider `c1ccc2c(c1)C1CCN2C1` (stereo unspecified), for which, under “basic group”, the pKa turned out to be 7.1.

For `CCN(CC)CC(=O)NC1CCCCC1`, for the setting “basic group”, the pKa came out at 8.21.

`O=C1[C@H]2C[C@H](CN3CCCC[C@@H]23)C2=CCCCN12` returned a pKa (basic group) of 7.7.

The molecule `O=c1cc(-c2ccc(O)cc2)oc2ccccc12` returned a pKa (acidic group) of 8.27.

Consider `CN1[C@@H]2CC[C@H]1C[C@H](OC(=O)C(O)c1ccccc1)C2` (stereo partly specified), for which the pKa (basic group) amounted to 9.61.

Consider `O=C(CCN1CCOCC1)c1cccc([N+](=O)[O-])c1`, for which, under “basic group”, the pKa was determined as 6.5.

As for `O=C(O)[C@H]1C[C@@H]1c1cccc(Cl)c1`, the pKa (acidic group) stood at 4.51.

As to `CNc1ccc[nH+]c1`, the pKa (basic group) is -2.17.

For the molecule `Nc1cnc2c(N)nc(N)nc2n1`, under “basic group”, the pKa was determined as 6.3.

On to `CCn1cccc(O)c1=O`, for which the pKa (acidic group) was 8.99.

`Cc1nc2c(n1C)C(=O)c1nc[nH+]c(O)c1C2=O` returned a pKa (acidic group) of 1.15.

Turning to `CC(=O)[n+]1ccc(C#N)cc1`, the pKa (acidic group) turned out to be 1.98.

In the case of `OCCCc1cccnc1`, the pKa (basic group) was 5.57.

For the setting “acidic group”, `[NH3+]CC[SeH]` yielded a pKa of 5.

On to `O=S(O)Cc1ccccc1`, for which the pKa (acidic group) was 1.86.

Turning to `CN1[C@H]2CC[C@@H]1[C@H](C(=O)[O-])[C@H](O)C2`, the pKa (basic group) worked out at 11.1.

`[NH3+]C(Cc1cnc[nH]1)C(=O)NCC(=O)[O-]` (stereo unspecified): the pKa (basic group) is 6.67.

In the case of `NCc1ccc(Cl)cc1`, for the setting “basic group”, the pKa came out at 9.24.

With `COC(=O)[C@@H](N)Cc1c[nH]cn1`, the pKa (basic group) was 7.33.

Consider `CC1CNCC[NH2+]1` (stereo unspecified), for which, for the setting “basic group”, the pKa came out at 5.46.

Regarding `S=CNCc1ccccc1`, the pKa (acidic group) stood at 12.3.

For the setting “acidic group”, `N#CC[N+](=O)[O-]` showed a pKa of 4.86.

On to `Cc1c(Cn2cc[nH+]c2)sc2ccc(C(=O)O)cc12`, for which the pKa (acidic group) turned out to be 3.82.

For the molecule `S=c1[nH]cnc2nn[nH]c12`, the pKa (acidic group) was found to be 4.6.

`CC(CC(c1ccccc1)c1ccccc1)N1CCCCC1` (stereo unspecified): the pKa (basic group) is 8.8.

`O=CO` yielded a pKa (acidic group) of 3.69.

Consider `Nc1nnnn1-c1ccccc1`, for which the pKa (basic group) was determined as 1.12.

Under “basic group”, `Cc1cccc(C)c1/C(=N/CCC[NH+](C)C)c1ccccc1` showed a pKa of 3.83.

Turning to `Cc1ccc(C)c(C(=O)C(=O)O)c1`, the pKa (acidic group) came to 1.45.

The molecule `O=c1ccc(O)ccc1[O-]` registered a pKa (acidic group) of 10.1.

As for `C[Si](C)(CCCCl)CCCC(=O)O`, the pKa (acidic group) amounted to 4.98.

For the setting “basic group”, `NCCSCC[NH3+]` gave a pKa of 8.84.

On to `CNC(=O)/C=C\C(=O)O`, for which, for the setting “acidic group”, the pKa is 3.98.

The molecule `Nc1nc2cc3c(cc2[nH]1)CCCC3` registered a pKa (basic group) of 7.69.

For the molecule `C=C(C)C(N)O` (stereo unspecified), the pKa (basic group) turned out to be 8.

For `Cc1cc(O)n(C2CC[NH+](C)CC2)n1`, the pKa (acidic group) was 6.63.

Consider `N#CC(C#N)=NNc1cccc(Cl)c1`, for which the pKa by setting is: (acidic group) 6; (basic group) -0.78.

In turn, `O=c1cccccc1S` came in with a pKa (acidic group) of 5.9.

`Cn1ccnc1-c1nccn1C`: the pKa (basic group) came out at 4.91.

On to `O=C(O)c1cc2ccccc2[nH]1`, for which the pKa is, setting by setting: (acidic group) 3.79; (basic group) -0.57.

Molecule `Nc1ncnc([O-])c1N` came in with a pKa (basic group) of 9.86.

For the molecule `CCCC/C=[N+](\[O-])O`, for the setting “acidic group”, the pKa came to 4.5.

On to `C#CCCN`, for which the pKa (basic group) was 9.23.

As to `Nc1ccc(S(=O)(=O)Nc2ccc(C(=O)O)cc2)cc1`, the pKa (acidic group) is 4.02.

`O=C(NO)c1ccccc1` displayed a pKa (acidic group) of 8.71.

`C=CCN1CC[C@]23c4c5ccc(O)c4O[C@H]2[C@@H](O)C=C[C@H]3[C@H]1C5` had a pKa (basic group) of 7.83.

`Oc1nc(C(F)(F)F)nc2[nH+]c[nH]c12` came in with a pKa (acidic group) of 1.1.

`O=C(NCCN1CCOCC1)c1ccc(Cl)cc1`: the pKa (basic group) stood at 6.31.

On to `c1ccc(-c2ccncc2)cc1`, for which, under “basic group”, the pKa is 5.3.

Turning to `O=C(O)CC1CCCCO1` (stereo unspecified), the pKa (acidic group) was 4.39.

For the molecule `[NH3+]C(CC(=O)[O-])C(=O)NC(CC(=O)O)C(=O)[O-]` (stereo unspecified), where the note is “acidic group”, the pKa is 4.7.

On to `COC(=O)[C@@H]([NH3+])Cc1c[nH]cn1`, for which the pKa (basic group) was 5.38.

On to `CCNc1nc(N)nc(N)n1`, for which the pKa (basic group) is 5.23.

`O=C(c1ccccc1)N1CCNCC1` gave a pKa (basic group) of 7.79.

On to `O=[N+]([O-])c1cccc(S(=O)(=O)Nc2ccccc2)c1`, for which, under “acidic group”, the pKa was 7.5.

For `Cn1ccc(=S)cc1`, the pKa (basic group) amounted to 1.36.

The molecule `NCCCc1ccccn1` showed a pKa (basic group) of 10.1.

With `CC(=O)C(=O)CC(=O)C(C)=O`, where the note is “acidic group”, the pKa is 4.68.

Regarding `CC(C)=CCC1=C(O)[C@](O)(CC=C(C)C)C(=O)C(C(=O)CC(C)C)=C1O`, under “acidic group”, the pKa was found to be 4.22.

In turn, `CC(CN(C)C)[NH+](C)C` (stereo unspecified) returned a pKa (basic group) of 5.4.

`CN(C)CCC#N` gave a pKa (basic group) of 7.01.

The molecule `O=C1C(O)=C(/C=C/c2ccccc2)C(=O)c2ccccc21` came in with a pKa (acidic group) of 4.44.

`O=C(O)/C=C\c1cccc(Cl)c1`: the pKa (acidic group) was found to be 3.71.

`Cc1cc(-c2[nH]cc[nH+]2)nn1C`: the pKa (basic group) was found to be 2.
